In ChEMBL document CHEMBL3616451, “Design and synthesis of 11α-substituted bile acid derivatives as potential anti-tuberculosis agents” (Bioorg Med Chem Lett, 2015):
In brackets after ≈: the same amount, converted by molar mass. Activity calls are given as the source filed them. The rule behind the calls is not given here.

How the values were obtained:
[1] = test system: Mycobacterium tuberculosis; experiment: Anti-tubercular activity against rifampicin, isoniazid, ethambutol and pyrazinamide-sensitive Mycobacterium tuberculosis H37Ra ATCC 25177 assessed as growth inhibition at 30 ug/ml by XRMA method relative to control; type: functional; settings: read-out: GI
[2] = test system: Mycobacterium tuberculosis; experiment: Anti-tubercular activity against rifampicin, isoniazid, ethambutol and pyrazinamide-sensitive Mycobacterium tuberculosis H37Ra ATCC 25177 assessed as growth inhibition at 3 ug/ml by XRMA method relative to control; type: functional; settings: read-out: GI
[3] = test system: Pseudomonas fluorescens; experiment: Antibacterial activity against Pseudomonas fluorescens ATCC 13525 assessed as growth inhibition at 30 ug/ml relative to control; type: functional; settings: for inhibition of growth at 30 µg/mL: read-out: GI
[4] = test system: Bacillus subtilis; experiment: Antibacterial activity against Bacillus subtilis ATCC 23857 assessed as growth inhibition at 30 ug/ml relative to control; type: functional; settings: for inhibition of growth at 30 µg/mL: read-out: GI
[5] = test system: Escherichia coli; experiment: Antibacterial activity against Escherichia coli […] assessed as growth inhibition at 30 ug/ml relative to control; type: functional; settings: for inhibition of growth at 30 µg/mL: read-out: GI
[6] = test system: Mycobacterium tuberculosis; experiment: Anti-tubercular activity against rifampicin, isoniazid, ethambutol and pyrazinamide-sensitive Mycobacterium tuberculosis H37Ra ATCC 25177 assessed as growth inhibition at 10 ug/ml by XRMA method relative to control; type: functional; settings: read-out: GI
[7] = test system: Staphylococcus aureus; experiment: Antibacterial activity against Staphylococcus aureus ATCC 29213 assessed as growth inhibition at 30 ug/ml relative to control; type: functional; settings: for inhibition of growth at 30 µg/mL: read-out: GI
[8] = test system: A549; experiment: (§1) Cytotoxicity against human A549 cells after 48 hrs by MTT assay; type: cell-based; settings: a549, 48 h
[9] = as §1; type: cell-based; settings: A549 cells
[10] = (§2) Cytotoxicity against human THP1 cells after 48 hrs by MTT assay; type: cell-based, THP-1; settings: THP-1 cells
[11] = test system: THP-1; experiment: as §2; type: cell-based; settings: thp-1, 48 h
[12] = Cytotoxicity against human PANC1 cells after 48 hrs by MTT assay; type: cell-based, PANC-1; settings: for GI50 at 48 h: PANC-1 cells; for GI90: panc-1, 48 h
[13] = test system: Mycobacterium tuberculosis; experiment: Anti-tubercular activity against rifampicin, isoniazid, ethambutol and pyrazinamide-sensitive active phage of Mycobacterium tuberculosis H37Ra ATCC 25177 by serial dilution method; type: functional, organism-based
[14] = test system: Mycobacterium tuberculosis; experiment: Anti-tubercular activity against rifampicin, isoniazid, ethambutol and pyrazinamide-sensitive dormant phage of Mycobacterium tuberculosis H37Ra ATCC 25177 by serial dilution method; type: functional, organism-based
[15] = test system: Mycobacterium tuberculosis; experiment: Anti-tubercular activity against rifampicin, isoniazid, ethambutol and pyrazinamide-sensitive active phage of Mycobacterium tuberculosis H37Ra ATCC 25177 infected in human THP1 cells by neutral red assay; type: functional, organism-based; settings: H37Ra ATCC 25177, THP-1
[16] = test system: Mycobacterium tuberculosis; experiment: Anti-tubercular activity against rifampicin, isoniazid, ethambutol and pyrazinamide-sensitive dormant phage of Mycobacterium tuberculosis H37Ra ATCC 25177 infected in human THP1 cells by neutral red assay; type: functional, organism-based; settings: H37Ra ATCC 25177, THP-1

CCOC(=O)N[C@@H]1C(=O)[C@]2(C)[C@@H]([C@H](C)CCC(=O)OC)CC[C@H]2[C@H]2[C@H]1[C@@]1(C)CC[C@@H](OC(C)=O)C[C@H]1C[C@H]2OC(C)=O
inhibition of growth at 30 µg/mL [1]: 86% | inhibition of growth at 3 µg/mL [2]: 66% | inhibition of growth at 30 µg/mL [3]: 54.5% | growth inhibition (GI) [4]: inactive | inhibition of growth at 30 µg/mL [5]: 46.7% | inhibition of growth at 10 µg/mL [6]: 73% | inhibition of growth at 30 µg/mL [7]: 17.3%

CC(=O)O[C@H]1C(=O)[C@@]2(C)[C@H]([C@H](OC(=O)c3ccccc3)[C@]3(O)C[C@H](OC(=O)[C@H](O)[C@@H](NC(=O)c4ccccc4)c4ccccc4)C(C)=C1C3(C)C)[C@]1(OC(C)=O)CO[C@@H]1C[C@@H]2O [PACLITAXEL]
GI90 [8]: 0.0706 µg/mL (≈ 0.0827 µM) | GI50 at 48 h [9]: 0.0035 µg/mL (≈ 0.0041 µM) | GI50 at 48 h [10]: 0.137 µg/mL (≈ 0.161 µM) | GI90 [11]: 5.814 µg/mL (≈ 6.81 µM) | GI50 at 48 h [12]: 0.128 µg/mL (≈ 0.15 µM) | GI90 [12]: 5.715 µg/mL (≈ 6.69 µM)

COC(=O)CC[C@@H](C)[C@H]1CC[C@H]2[C@H]3[C@H]([C@H](NC(=O)[C@H]4CCCN4)C(=O)[C@]12C)[C@@]1(C)CC[C@@H](OC(C)=O)C[C@H]1C[C@H]3OC(C)=O
inhibition of growth at 30 µg/mL [1]: 71% | inhibition of growth at 3 µg/mL [2]: 55% | inhibition of growth at 30 µg/mL [3]: 20.1% | growth inhibition (GI) [4]: inactive | inhibition of growth at 30 µg/mL [5]: 23.9% | inhibition of growth at 10 µg/mL [6]: 66% | growth inhibition (GI) [7]: inactive

COC(=O)CC[C@@H](C)[C@H]1CC[C@H]2[C@H]3[C@H]([C@H](NC(C)C)C(=O)[C@]12C)[C@@]1(C)CC[C@@H](OC(C)=O)C[C@H]1C[C@H]3OC(C)=O
inhibition of growth at 30 µg/mL [1]: 84% | inhibition of growth at 3 µg/mL [2]: 66% | inhibition of growth at 30 µg/mL [3]: 37.2% | inhibition of growth at 30 µg/mL [4]: 4.79% | inhibition of growth at 30 µg/mL [5]: 31.9% | inhibition of growth at 10 µg/mL [6]: 71% | inhibition of growth at 30 µg/mL [7]: 16.4%

CCCCCCc1cn([C@@H]2C(=O)[C@]3(C)[C@@H]([C@H](C)CCC(=O)OC)CC[C@H]3[C@H]3[C@H]2[C@@]2(C)CC[C@@H](OC(C)=O)C[C@H]2C[C@H]3OC(C)=O)nn1
inhibition of growth at 30 µg/mL [1]: 97% | inhibition of growth at 3 µg/mL [2]: 91% | GI90 [8]: > 100 µg/mL | GI50 at 48 h [9]: > 100 µg/mL | GI50 at 48 h [10]: > 100 µg/mL | GI90 [11]: > 100 µg/mL | growth inhibition (GI) [3]: inactive | inhibition of growth at 30 µg/mL [4]: 22.9% | IC50 [13]: 0.64 µg/mL (≈ 0.976 µM) | IC90 [13]: 2.63 µg/mL (≈ 4.01 µM) | IC50 [14]: 0.17 µg/mL (≈ 0.259 µM) | IC90 [14]: 2.43 µg/mL (≈ 3.7 µM) | growth inhibition (GI) [5]: inactive | GI50 at 48 h [12]: > 100 µg/mL | GI90 [12]: > 100 µg/mL | inhibition of growth at 10 µg/mL [6]: 96% | IC50 [15]: 0.25 µg/mL (≈ 0.381 µM) | IC90 [15]: 2.8 µg/mL (≈ 4.27 µM) | IC50 [16]: 0.13 µg/mL (≈ 0.198 µM) | IC90 [16]: 1.55 µg/mL (≈ 2.36 µM) | growth inhibition (GI) [7]: inactive

COC(=O)CC[C@@H](C)[C@H]1CC[C@H]2[C@H]3[C@H]([C@H](NC(=O)[C@H]4CCCN4C(=O)OC(C)(C)C)C(=O)[C@]12C)[C@@]1(C)CC[C@@H](OC(C)=O)C[C@H]1C[C@H]3OC(C)=O
inhibition of growth at 30 µg/mL [1]: 94% | inhibition of growth at 3 µg/mL [2]: 66% | GI90 [8]: > 100 µg/mL | GI50 at 48 h [9]: 52 µg/mL (≈ 72.5 µM) | GI50 at 48 h [10]: 46 µg/mL (≈ 64.1 µM) | GI90 [11]: > 100 µg/mL | inhibition of growth at 30 µg/mL [3]: 61.5% | growth inhibition (GI) [4]: inactive | IC50 [13]: 3.62 µg/mL (≈ 5.05 µM) | IC90 [13]: 27.5 µg/mL (≈ 38.3 µM) | IC50 [14]: 2.25 µg/mL (≈ 3.14 µM) | IC90 [14]: 27 µg/mL (≈ 37.7 µM) | inhibition of growth at 30 µg/mL [5]: 26.8% | GI50 at 48 h [12]: 15 µg/mL (≈ 20.9 µM) | GI90 [12]: > 100 µg/mL | inhibition of growth at 10 µg/mL [6]: 80% | IC50 [15]: 1.96 µg/mL (≈ 2.73 µM) | IC90 [15]: 27.3 µg/mL (≈ 38.1 µM) | IC50 [16]: 1.32 µg/mL (≈ 1.84 µM) | IC90 [16]: 23.8 µg/mL (≈ 33.3 µM) | growth inhibition (GI) [7]: inactive

COC(=O)CC[C@@H](C)[C@H]1CC[C@H]2[C@H]3[C@H]([C@H](n4cc(-c5ccccn5)nn4)C(=O)[C@]12C)[C@@]1(C)CC[C@@H](OC(C)=O)C[C@H]1C[C@H]3OC(C)=O
inhibition of growth at 30 µg/mL [1]: 71% | inhibition of growth at 3 µg/mL [2]: 38% | inhibition of growth at 30 µg/mL [3]: 47.1% | growth inhibition (GI) [4]: inactive | inhibition of growth at 30 µg/mL [5]: 32.1% | inhibition of growth at 10 µg/mL [6]: 48% | growth inhibition (GI) [7]: inactive

COC(=O)CC[C@@H](C)[C@H]1CC[C@H]2[C@H]3[C@H]([C@H](NC(=O)C(CO)NC(=O)OC(C)(C)C)C(=O)[C@]12C)[C@@]1(C)CC[C@@H](OC(C)=O)C[C@H]1C[C@H]3OC(C)=O (stereo partly drawn)
inhibition of growth at 30 µg/mL [1]: 91% | inhibition of growth at 3 µg/mL [2]: 68% | GI90 [8]: > 100 µg/mL | GI50 at 48 h [9]: > 100 µg/mL | GI50 at 48 h [10]: 76.2 µg/mL (≈ 108 µM) | GI90 [11]: > 100 µg/mL | inhibition of growth at 30 µg/mL [3]: 29.9% | growth inhibition (GI) [4]: inactive | IC50 [13]: 2.7 µg/mL (≈ 3.82 µM) | IC90 [13]: 28.9 µg/mL (≈ 40.8 µM) | IC50 [14]: 6.16 µg/mL (≈ 8.71 µM) | IC90 [14]: 26.3 µg/mL (≈ 37.2 µM) | inhibition of growth at 30 µg/mL [5]: 43.2% | GI50 at 48 h [12]: > 100 µg/mL | GI90 [12]: > 100 µg/mL | inhibition of growth at 10 µg/mL [6]: 73% | IC50 [15]: 3.98 µg/mL (≈ 5.63 µM) | IC90 [15]: 26.9 µg/mL (≈ 38 µM) | IC50 [16]: 3.44 µg/mL (≈ 4.87 µM) | IC90 [16]: 26.3 µg/mL (≈ 37.2 µM) | inhibition of growth at 30 µg/mL [7]: 11.9%

COC(=O)CC[C@@H](C)[C@H]1CC[C@H]2[C@H]3[C@H]([C@H](n4nnc5ccccc54)C(=O)[C@]12C)[C@@]1(C)CC[C@@H](OC(C)=O)C[C@H]1C[C@H]3OC(C)=O
inhibition of growth at 30 µg/mL [1]: 96% | inhibition of growth at 3 µg/mL [2]: 76% | GI90 [8]: > 100 µg/mL | GI50 at 48 h [9]: 20 µg/mL (≈ 32.2 µM) | GI50 at 48 h [10]: 29.9 µg/mL (≈ 48.1 µM) | GI90 [11]: > 100 µg/mL | inhibition of growth at 30 µg/mL [3]: 46.8% | inhibition of growth at 30 µg/mL [4]: 8.94% | IC50 [13]: 1.08 µg/mL (≈ 1.74 µM) | IC90 [13]: 9.79 µg/mL (≈ 15.7 µM) | IC50 [14]: 1.27 µg/mL (≈ 2.04 µM) | IC90 [14]: 7.15 µg/mL (≈ 11.5 µM) | inhibition of growth at 30 µg/mL [5]: 33.8% | GI50 at 48 h [12]: 50 µg/mL (≈ 80.4 µM) | GI90 [12]: > 100 µg/mL | inhibition of growth at 10 µg/mL [6]: 94% | IC50 [15]: 1.11 µg/mL (≈ 1.79 µM) | IC90 [15]: 8.6 µg/mL (≈ 13.8 µM) | IC50 [16]: 1.65 µg/mL (≈ 2.65 µM) | IC90 [16]: 8.16 µg/mL (≈ 13.1 µM) | growth inhibition (GI) [7]: inactive
